{
  "source": "patent US20260325465A1",
  "about": "“SHP-1 INHIBITORS FOR TREATING CANCER” (MDX MANAGEMENT LLC, priority 2022, published 2026)",
  "key": {"[1]": {"system": "PTP activity in macrophages", "assay": "PTP activity in macrophages co-cultured with cancer cells and stimulated with IFNγ/LPS or TLR agonists", "assay_type": "cell-based", "parameters": "concentration or dose not given beside the values", "settings": "induced by IFNγ/LPS or TLR agonists, with cancer cell ligation, 30 min, 37 °C", "protocol": "FIGS. 3A-3E depict modulation of SHP-1 activity in proinflammatory macrophages in cancer. Macrophages co-cultured with cancer cells were stimulated with IFNγ/LPS or TLR agonists (αTLR) comprising CpG, polycytidylic acid (i.e., PolyI:C) and R848 (each 0.4 μg/ml) for 30 min (37 °C) in the presence or the absence of different SHP-1 or SHP-2 inhibitor or activator, followed by cell lysis and assays of PTP activity. FIG. 3A depicts SHP-1 activity regulation mechanisms. […] FIG. 3E depicts that PKCθ negatively regulates SHP-1 activity at a moderate level."}, "[2]": {"system": "p-STAT1 and p-Erk1/2", "assay": "STAT1 and Erk1/2 phosphorylation in macrophages with cancer cell ligation", "assay_type": "cell-based", "settings": "IFNγ/LPS", "protocol": "FIGS. 2A-2G depict that the inhibition of SHP-1 enhances macrophage proinflammatory response, antigen presentation and phagocytosis in a tumor milieu. FIG. 2A and FIG. 2B depict that SHP-1 activity in macrophages is triggered by proinflammatory stimulation and the extracellular cancer cell ligation (“touching”) of macrophages (green bar in FIG. 2A). […] The SHP-2 inhibitor SHP099 (1 μg/ml) was used in assays. FIG. 2C depicts the inhibition of SHP-1 by TPI-1 dose-dependently recovers IFNγ/LPS-induced activation of STAT1 (p-STAT1) and Erk1/2 (p-Erk1/2) de-activated by SHP-1 (red line). FIG. 2D and FIG. 2E depict that the inhibition of SHP-1 in macrophages by TPI-1 enhances production of proinflammatory cytokines (FIG. 2D) and expression of immunogenic antigen presentation machinery (FIG. 2E) by IFNγ/LPS in a tumor milieu. […] The SHP-1 and SHP-2 inhibitors TPI-1 and SHP099, respectively, was used at 1 μg/ml in assays.\nMacrophages with high SHP-1 activity in a tumor milieu diminish production of proinflammatory cytokines but produce high IL-10 (see FIG. 2D, blue bar) under stimulation of IFNγ/LPS. This reinforcement of immunosuppression was reversed by SHP-1 inhibition. […]"}, "[3]": {"system": "STAT1 and Erk1/2", "assay": "Pulse inhibition of SHP-1, STAT1 and Erk1/2 phosphorylation (WB)", "assay_type": "cell-based, murine", "settings": "IFNγ/LPS, immediately after treatment", "protocol": "FIGS. 4A and 4B depict that pulse inhibition of SHP-1 transiently enhances proinflammatory signal transduction in macrophages. FIG. 4A: murine macrophages (bone marrow derived macrophages, or “BMDM”) were treated with TPI-1 for 15 min followed by wash to complete removal of TPI-1. At different time points after the TPI-1 treatment, macrophages were stimulated with IFNγ/LPS in the presence of alive cancer cells (1:1 ratio to BMDM) for 20 min prior to cell lysis and assaying SHP-1 activity using pNpp and WB detecting total and phosphorylated STAT1 and Erk1/2. FIG. 4B: the same setting as in FIG. 4A, except that after TPI-1 treatment, TPI-1 in medium was partially removed (50%) or without removal, followed by macrophage stimulation with IFNγ/LPS at different time points."}, "[4]": {"system": "PTP/SHP-1 activity in KPC tumor", "assay": "PTP/SHP-1 activity in KPC tumor in vivo", "parameters": "species or system murine", "settings": "with αTLR, cytokines, STING activator, RT, AZA or αPD-L1"}, "[5]": {"system": "MC38 tumor", "assay": "Ex vivo treatment of excised MC38 tumor", "parameters": "species or system murine", "settings": "TPI-1 and αTLR", "from_the_text": "FIGS. 8A-8E depict that SHP-1 inhibition combined with TLR agonists (αTLR) reprograms TME of MC38 colorectal carcinoma. FIG. 8A depicts MC38 tumor treatment scheme.\nConsistent with these changes, TME analyses of MC38 colorectal and KPC pancreatic tumors treated with TLR agonist combined with TPI-1 or RT (FIGS. 8A-8E & 9) found rapid infiltration of inflammatory neutrophils (ROShigh) and tumor-killing NK cells (Granzhigh), and the strong antigen presentation also brought about the expansion of tumor-specific (p15E-reactive) cytotoxic T cells harboring high tumoricidal capacity (Granzhigh). The immunosuppressive compartments in the same TME, including MDSC and Treg, were reduced. […] Ex vivo infusion of TLR agonists and TPI-1 together, but not each individually, into excised tumors induced the similar response of T cell expansion."}, "[6]": {"system": "KPC pancreatic adenocarcinoma", "assay": "Study-1: continuous vs intermittent iSHP-1 with TLR agonists, efficacy", "assay_type": "in vivo, mice", "settings": "1, 3 and 10 mg/kg i.p., with CpG plus PolyI:C", "protocol": "FIGS. 11A-11E depict the impact of continuous or intermittent iShp-1 treatment on the efficacy and adverse toxicity. FIG. 11A depicts the study design. Mice with KPC pancreatic cancer were either continuously treated with TPI-1 (1× per day) or in an intermittent fashion with gapping days between two treatments (intermittent). Three doses, 1, 3 and 10 mg/kg (i.p.), were tested and TLR agonists (CpG plus PolyI:C, each 10 μg, i.p., 1× every 3 day) was given to kickstart inflammatory response. […] Tumor imaging (FIG. 11B) and volume change records (FIG. 11C) indicate similar efficacies of iShp-1 with continuous or intermittent schemes.\nTumor model: Single engraftment of KPC pancreatic adenocarcinoma\nTreatments & dosing strategies: i) iSHP-1—TPI-1, 1, 3, and 10 mg/kg; i.p. either 1× per day (continuous), or following an intermittent schedule depicted in FIG. 11. ii) TLR agonists (αTLR)—CpG, PolyI:C, each 10 μg; i.p. every 3 days"}, "[7]": {"system": "MC38 colorectal carcinoma", "assay": "Study-2: multi-lesion MC38 colorectal carcinoma, efficacy", "assay_type": "in vivo, mice", "settings": "intermittent iSHP-1 with αTLR, or αTLR and αPD-L1", "protocol": "FIGS. 12A-12D depict that pulse-intermittent inhibition of SHP-1 (iSHP-1) combined with TLR agonists (αTLR) and/or anti-PD-L1 checkpoint inhibitor effectively treat multi-lesion MC38 colorectal carcinoma. FIG. 12A depicts the treatment scheme. Mice with bilateral MC38 tumors (s.c.) were treated for two days with TPI-1 and various combinations via i.p. or s.c. A 5-day intermittent period was given before the 2nd cycle of treatments to mice that had residue tumors. FIGS. 12B and 12C depict tumor control efficacies measured by tumor volume changes (FIG. 12B) and TME reprogramming, indicating increases in tumor killing immune populations while reduction of immunosuppression. FIG. 12D depicts acute adverse toxicity, measured by body weight, proteinuria, serum ALT level and splenomegaly."}, "[8]": {"system": "KPC pancreatic tumor", "assay": "Cytokines secreted by KPC tumor pieces treated with TLR agonists with or without TPI-1", "parameters": "species or system mice", "settings": "TPI-1 0.4 μM with TLR agonists 1 μg/ml, 18 h", "protocol": "KPC pancreatic tumor removed from mice were cut into small pieces and treated with 5 different TLR agonists (R848, 3M-852A, Motolimod, Bropirimine or Vesatolimod; 1 μg/ml each) without or with SHP-1 inhibitor TPI-1 (0.4 μM). After 18 h, cytokines secreted into the culture medium were assayed."}},
  "data": [
    {"molecule": "O=C1C=CC(=O)C(c2cc(Cl)ccc2Cl)=C1", "note": "[TPI-1]", "values": [
      {"measurement": "PTP activity diminished in macrophages", "setting": "[1]", "result": "> 70", "unit": "%"},
      {"measurement": "STAT-1 and Erk1/2 phosphorylation", "setting": "[2]", "result": "dose-dependently released cancer cell-imposed inhibition"},
      {"measurement": "pSTAT-1 and pErk1/2", "setting": "[3]", "result": "increased pSTAT-1 and pErk1/2"},
      {"measurement": "treatment-induced PTP/SHP-1 activity abated", "setting": "[4]", "result": "abated"},
      {"measurement": "CD8 T cell expansion in excised tumor", "setting": "[5]", "result": "induced CD8 T cell expansion"},
      {"measurement": "tumor response", "setting": "[6]", "result": "restrained KPC pancreatic tumor growth and induced tumor regression"},
      {"measurement": "tumor regression, combination", "setting": "[7]", "result": "effectively regressed multiple lesions of MC38 colorectal cancer"},
      {"measurement": "cytokines secreted, with SHP-1 inhibitor", "setting": "[8]", "result": "induced high production of proinflammatory cytokine s while suppressing production of IL-10 and TGFβ"}
    ]}
  ]
}
